Read-outs that look alike come from different tables or passages of the source. Bounds are passed on as bounds.

The subject of the test is primary cultured neonatal microglia. Description: LPS induced NO release, Griess assay, laboratory scaled setup.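 As to active: compounds at or above the IC50 cutoff were called inactive.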 The test is classed as cell-based, mouse. As to conditions: for IC50: Mus musculus, Microglia. Here is the method:
Primary cultured neonatal microglia. For preparation of cultured neonatal microglia, P0-P3 mice were used. 10 brains were extracted, meninges and cerebellum were removed and put on ice with Hank's balanced salt solution (HBSS). The dissected brains were washed 3 times before adding 400 μL trypsin (0.1 mg/L) and DNAse (5 μg/L) in phosphate buffered saline (PBS). After 2 min of incubation with this solution, the reaction was blocked by adding plain medium. After removal of the medium, 1 mg DNAse was added and the cells were mechanically dissociated, with a Pasteur pipette followed by a glass pipette. The cells were centrifuged for 10 min at 129 g at 4° C. The supernatant was discarded. The pellet was resuspended in plain medium and plated (2.5 brains/flask) in Poly-L-Lysine coated flasks. The cells were washed after 2 days with PBS and incubated for another 7 days in plain medium. Afterwards the medium was replaced by plain medium with 33% L929 conditioned medium. After 2 days, cells were harvested by shaking them for 30 min at 150 rpm. The supernatant was centrifuged for 10 min at 129 g at 4° C. The cells were plated into a 96 well plate (100 000 cells/well, 200 μL medium per well). This procedure could be repeated 2 times with a 2 day interval.
Griess assay. Cells were seeded according to the protocols described above, after compounds and stimuli were added, 100 μl of supernatant was transferred into a new 96 well plate and 100 μl freshly mixed Griess reagent were added. Griess reagent was composed of reagent A (100 mg Naphthylethylene in 50 ml aqua dest.) and reagent B (1 g Sulfanilamide, […] H3PO4 (85%) in 44 mL aqua dest.) mixed 1:1. The solution was carefully mixed and the absorbance was determined in a microplate reader at a wavelength of 550 nm.
Dissolved sodium nitrite in plain medium served as a standard. Total amount of nitrite was calculated by a linear regression of the standard curve.
The activity of the compounds listed in column 1 of Table 1 as inhibitors of NO production was compared in murine primary cultured neonatal microglia as described above.

Setting [1] is: inhibitors of NO production, murine primary cultured neonatal microglia, read-out: IC50.
[2] abbreviates: inhibitors of NO production, murine primary cultured neonatal microglia, read-out: activity class (IC50).
Where [3] appears, read: inhibitors of NO production, murine primary cultured neonatal microglia.

In general, IC50 refers to the concentration at which inhibition is half-maximal. On to `COc1ccc(NC(=O)[C@@H](NC(=O)[C@@H]2CCCN2C(=O)CCC2CCCC2)c2ccc(OC)cc2)cc1` [Compound 5, (S)-1-(3-cyclopentylpropanoyl)-N—((S)-1-(4-methoxyphenyl)-2-((4-methoxyphenyl)amino)-2-oxoethyl)pyrrolidine-2-carboxamide], for which the IC50 is, setting by setting: under setting [1], 16.7 nM; under setting [2], below 50 nM. Further, under setting [3], the active result is reported as “YES”.

For the compound `COc1ccc(NC(=O)[C@@H](NC(=O)[C@@H]2CCCN2C(=O)CCC2CCCCC2)c2ccc(OC)cc2)cc1` [Compound 6, (S)-1-(3-cyclohexylpropanoyl)-N—((S)-1-(4-methoxyphenyl)-2-((4-methoxyphenyl)amino)-2-oxoethyl)pyrrolidine-2-carboxamide], the IC50 is 20.4 nM under setting [1] and below 50 nM under setting [2]. Besides, under setting [3], the active entry is “YES”.

Turning to `COc1ccc(NC(=O)[C@@H](NC(=O)[C@@H]2CCCN2C(=O)CCCC2CCCCC2)c2ccc(OC)cc2)cc1` [Compound 7], the half-inhibitory concentration (IC50) under setting [1] was 44.9 nM and the 50% inhibitory concentration (IC50) under setting [2] is below 50 nM. Further, under setting [3], the active result is recorded as “YES”.

With `COc1ccc(NC(=O)[C@@H](NC(=O)[C@@H]2CCCN2C(=O)CCC2CCCCC2)c2ccc(OCCOCCOCCOCCOCCOCCNC(=O)CCCC[C@@H]3SC[C@@H]4NC(=O)N[C@@H]43)cc2)cc1` [Compound 8, (S)-1-(3-cyclohexylpropanoyl)-N—((S)-2-((4-methoxyphenyl)amino)-2-oxo-1-(4-((19-oxo-23-((3aS,4S,6aR)-2-oxohexahydro-1H-thieno[3,4-d]imidazol-4-yl)-3,6,9,12,15-pentaoxa-18-azatricosyl)oxy)phenyl)ethyl)pyrrolidine-2-carboxamide], the IC50 runs as follows: under setting [1], 8.37 nM; under setting [2], below 50 nM. Further, the active result under setting [3] is recorded as “YES”.

On to `COc1ccc(NC(=O)[C@@H](NC(=O)[C@@H]2CCCN2C(=O)CCc2ccc(F)cc2)c2ccc(OC)cc2)cc1` [Compound 9, (S)-1-(3-(4-fluorophenyl)propanoyl)-N—((S)-1-(4-methoxyphenyl)-2-((4-methoxyphenyl)amino)-2-oxoethyl)pyrrolidine-2-carboxamide], for which the IC50 is, setting by setting: under setting [1], 54.8 nM; under setting [2], below 100 nM. Under setting [3], the active result is given as “YES”.

Take `COc1ccc([C@H](NC(=O)[C@@H]2CCCN2C(=O)OCc2ccccc2)C(=O)Nc2cc3n(n2)CCCC3)cc1` [Compound 10, benzyl(S)-2-(((S)-1-(4-methoxyphenyl)-2-oxo-2-((4,5,6,7-tetrahydropyrazolo[1,5-a]pyridin-2-yl)amino)ethyl)carbamoyl)pyrrolidine-1-carboxylate]: the IC50 by setting is: under setting [1], 65.5 nM; under setting [2], below 100 nM. The active result under setting [3] is “YES”.

For `COc1ccc(NC(=O)[C@@H](NC(=O)[C@@H]2CCCN2C(=O)COc2ccccc2)c2ccc(OC)cc2)cc1` [Compound 11, (S)—N—((S)-1-(4-methoxyphenyl)-2-((4-methoxyphenyl)amino)-2-oxoethyl)-1-(2-phenoxyacetyl)pyrrolidine-2-carboxamide], the IC50 under setting [1] was determined as 71.7 nM and the IC50 under setting [2] is below 100 nM. Moreover, the active entry under setting [3] is “YES”.

In the case of `COc1ccc(NC(=O)[C@@H](NC(=O)[C@@H]2CCCN2C(=O)Cc2ccccc2)c2ccc(OC)cc2)cc1` [Compound 12, (S)—N—((S)-1-(4-methoxyphenyl)-2-((4-methoxyphenyl)amino)-2-oxoethyl)-1-(2-phenylacetyl)pyrrolidine-2-carboxamide], the IC50 was 99.6 nM under setting [1] and below 100 nM under setting [2]. Further, the active result under setting [3] was “YES”.

Take `COc1ccc(NC(=O)[C@@H](NC(=O)[C@@H]2CCCN2C(=O)CCc2ccccc2)c2ccc(OC)cc2)cc1` [Compound 13]: the IC50 reads like this: under setting [1], 151 nM; under setting [2], below 200 nM. Under setting [3], the active entry is recorded as “YES”.

Take `COc1ccc(NC(=O)[C@@H](NC(=O)[C@@H]2CCCN2C(=O)CCc2ccoc2)c2ccc(OC)cc2)cc1` [Compound 14, (S)-1-(3-(furan-3-yl)propanoyl)-N—((S)-1-(4-methoxyphenyl)-2-((4-methoxyphenyl)amino)-2-oxoethyl)pyrrolidine-2-carboxamide]: the IC50 under setting [1] was 147 nM and the half-maximal inhibitory concentration (IC50) under setting [2] is below 200 nM. For the same compound, under setting [3], the active entry was “YES”.

Turning to `COc1ccc(NC(=O)[C@@H](NC(=O)[C@@H]2CCCN2C(=O)CCC2CCOCC2)c2ccc(OC)cc2)cc1` [Compound 15, (S)—N—((S)-1-(4-methoxyphenyl)-2-((4-methoxyphenyl)amino)-2-oxoethyl)-1-(3-(tetrahydro-2H-pyran-4-yl)propanoyl)pyrrolidine-2-carboxamide], the IC50 under setting [1] came to 117 nM and the half-inhibitory concentration (IC50) under setting [2] was below 200 nM. For the same compound, under setting [3], the active result is “YES”.

Regarding `COc1ccc(NC(=O)[C@@H](NC(=O)[C@@H]2CCCN2C(=O)CCc2cccs2)c2ccc(OC)cc2)cc1` [Compound 16, (S)—N—((S)-1-(4-methoxyphenyl)-2-((4-methoxyphenyl)amino)-2-oxoethyl)-1-(3-(thiophen-2-yl)propanoyl)pyrrolidine-2-carboxamide], the IC50 reads like this: under setting [1], 122 nM; under setting [2], below 200 nM. Moreover, the active result under setting [3] was “YES”.

For `COc1ccc(NC(=O)[C@@H](NC(=O)[C@@H]2CCCN2C(=O)OCc2ccccc2)c2ccccc2)cc1` [Compound 17, benzyl (S)-2-(((S)-2-((4-methoxyphenyl)amino)-2-oxo-1-phenylethyl)carbamoyl)pyrrolidine-1-carboxylate], the IC50 is 122 nM under setting [1] and below 200 nM under setting [2]. For the same compound, under setting [3], the active result is reported as “YES”.

With `COc1ccc(NC(=O)[C@@H](NC(=O)[C@@H]2CCCN2C(=O)OCc2ccccc2)c2ccc(OC)cc2)cc1` [Compound 18, (S)-benzyl-2-((S)—(4-methoxyphenylcarbamoyl)(4-methoxyphenyl)methylcarbamoyl)pyrrolidine-1-carboxylate], where the note is “FIG. 9”, the “inhibitory effect in the NO release assay” value is “shows an inhibitory effect”. Besides, the IC50 reads like this: (0.002 to 20 μM, FIG. 9, read-out: IC50, LPS induced NO production (stereoisomers)) 100 nM; under setting [1], 107 nM; under setting [2], below 200 nM. Further, under setting [3], the active result is “YES”.

Regarding `COc1ccc(NC(=O)[C@@H](NC(=O)[C@@H]2CCCN2C(=O)CC2CCCCC2)c2ccc(OC)cc2)cc1` [Compound 19, (S)-1-(2-cyclohexylacetyl)-N—((S)-1-(4-methoxyphenyl)-2-((4-methoxyphenyl)amino)-2-oxoethyl)pyrrolidine-2-carboxamide], the IC50 was 208 nM under setting [1] and below 1000 nM under setting [2]. In addition, the active result under setting [3] is on record as “YES”.

Take `COc1ccc(NC(=O)[C@@H](NC(=O)[C@@H]2CCCN2C(=O)CCC(C)C)c2ccc(OC)cc2)cc1` [Compound 20, (S)—N—((S)-1-(4-methoxyphenyl)-2-((4-methoxyphenyl)amino)-2-oxoethyl)-1-(4-methylpentanoyl)pyrrolidine-2-carboxamide]: the IC50 by setting is: under setting [1], 203 nM; under setting [2], below 1000 nM. In addition, the active result under setting [3] is listed as “YES”.

`COc1ccc(NC(=O)[C@@H](NC(=O)[C@@H]2CCCN2C(=O)CCc2cn(C)c3ccccc23)c2ccc(OC)cc2)cc1` [Compound 21, (S)—N—((S)-1-(4-methoxyphenyl)-2-((4-methoxyphenyl)amino)-2-oxoethyl)-1-(3-(1-methyl-1H-indol-3-yl)propanoyl)pyrrolidine-2-carboxamide]: the IC50 under setting [1] was 259 nM and the IC50 under setting [2] was below 1000 nM. In addition, under setting [3], the active entry is “YES”.

As to `COc1ccc([C@H](NC(=O)[C@@H]2CCCN2C(=O)OCc2ccccc2)C(=O)Nc2ccc3c(c2)CCO3)cc1` [Compound 22, benzyl-(S)-2-(((S)-2-((2,3-dihydrobenzofuran-5-yl)amino)-1-(4-methoxyphenyl)-2-oxoethyl)carbamoyl)pyrrolidine-1-carboxylate], the IC50 is 231 nM under setting [1] and below 1000 nM under setting [2]. The active entry under setting [3] was “YES”.

For `COc1ccc(NC(=O)[C@@H](NC(=O)[C@@H]2CCCN2C(=O)C2CCCCC2)c2ccc(OC)cc2)cc1` [Compound 23, (S)-1-(cyclohexanecarbonyl)-N—((S)-1-(4-methoxyphenyl)-2-((4-methoxyphenyl)amino)-2-oxoethyl)pyrrolidine-2-carboxamide], the IC50 was 1080 nM under setting [1] and below 10000 nM under setting [2]. Moreover, under setting [3], the active entry is “YES”.

Turning to `COc1ccc(NC(=O)[C@@H](NC(=O)[C@@H]2CCCN2C(=O)c2ccccc2)c2ccc(OC)cc2)cc1` [Compound 24, (S)-1-benzoyl-N—((S)-1-(4-methoxyphenyl)-2-((4-methoxyphenyl)amino)-2-oxoethyl)pyrrolidine-2-carboxamide], the half-inhibitory concentration (IC50) runs as follows: under setting [1], 1100 nM; under setting [2], below 10000 nM. In addition, the active entry under setting [3] is listed as “YES”.
